SMILES strings stand for the structures.

Consider 4 compounds from patent US9897592B2, “Methods for identifying arthropod repellents and attractants, and compounds and compositions identified by such methods” (The Regents of the University of California, priority 2013, dated 2018).

Data set [1] deals with mammalian cation channels. The settings on record: cited from earlier work.
Data set [2] has as its target human acetylcholinesterase (Homo sapiens, UniProt P22303). The settings on record: cited from earlier work.
For data set [3], the system named is cpA neuron. Kind of data set: Butyryl chloride pre-exposure (cpA-off): cp sensillum responses to CO2, skin odorants, foot odor. The class given is cell-based, Aedes aegypti. From the text:
FIG. 2b depicts representative cp responses to 0.5-s pulses of indicated odorants after a 3-min pre-exposure to butyryl chloride (10^−2) (cpA-off) or solvent (sham treatment).
FIG. 2c is a bar graph illustrating the mean odorant-evoked responses of the cpA neuron in cpA-off and sham treated mosquitoes, and FIG. 2d is a bar graph illustrating the combined odor-evoked responses of two neighbouring neurons, cpB and cpC, where for both of these figures, n=6 individuals, 1-4 sensilla surveyed per individual; analysed by nested ANOVA, and baseline refers to cpA activity in the presence of room air.
(§1) CpA-off and sham treated mosquitoes were pre-treated for 3 min in an upended 1 L glass dish in which 100 μl of fresh butyryl chloride (1%) or paraffin oil was allowed to vaporize for 10-20 min. The odor delivery system for different screens is shown in FIG. 7b; solvent responses during the same recording session were subtracted. Inhibition screen was tested. For the ultra-prolonged activator the 3-s stimulus was delivered from a 10 ml disposable pipette using a CS-55 stimulus controller (Syntech), CO2 was delivered, and responses to subsequent odor stimuli were calculated by subtracting baseline activity 1 s prior to each stimulus. When responses to repeated pulses of cyclopentanone and CO2 were compared, baseline activity between seconds 5 and 6 following each stimulus was subtracted. Spike counting was done manually or with Igor Pro6.2 (Wavemetrics) with the Neuromatic v2.00 macro (by Jason Rothman), and peak-to-peak spike amplitudes for FIG. 8 were analysed in Clampfit 10.3 (Molecular Devices).

Data set [4] relates to antennal neurons. The data set is described as follows: Electroantennogram (EAG) after butyryl chloride treatment. The data set is classed as cell-based, Aedes aegypti. As to the method: FIG. 2e is a graph illustrating averaged traces and FIG. 2f is a graph illustrating mean electroantennograph (EAG) responses to air puffed over glass beads laden with foot odor or a clean bead control, where EAG peaks are normalized to 3-methyl-1-butanol response, n=9, and analysed by t-test.
FIG. 9d illustrates EAG responses normalized to the reference odor 3-methyl-1-butanol. No significant differences due to treatment (n=9; t-test).
Standard whole-antenna recordings were performed with minor modifications. Traces were averaged using Clampfit software (Molecular Devices), and responses were normalized to interspersed pulses of a reference odorant, 3-methyl-1-butanol, according to the formula: Raw response (mV)/(ax+by), where a and b are the responses (mV) to the immediately previous and subsequent reference odor stimulation, respectively, and x and y are the proportion of time elapsed between stimuli (so that x+y=1).

Data set [5] deals with A. aegypti. Kind of data set: Wind tunnel assay of attraction to human foot odor beads. The data set is classed as in vivo, Aedes aegypti. Here is the method: FIG. 2h is a schematic of wind tunnel assay, where human odor was provided by a dish of glass beads that had been worn in socks for ˜6 hrs (Person 1), and flight behaviour of individual female mosquitoes was recorded for 5 min or until they landed on the beads.
FIGS. 2i-k are bar graphs illustrating the proportion of butyryl chloride pre-exposed and sham treated mosquitoes presented with beads with no odor or foot odor that landed on beads (FIG. 2i), that took off from the release cage (FIG. 2j), and that did take off that succeeded in landing on the beads (FIG. 2k), where n=20-23 individuals per condition, analysed by one-tailed proportion Z-test, *p<0.05, **p<0.01, ***p<0.001, and error bars are s.e.m. All odorants except CO2 were dissolved in paraffin oil at 10^−2 except where indicated. […]

The subject of data set [6] is A. aegypti. The data set is described as follows: Short-range attraction to heat and humidity. The class given is in vivo, Aedes aegypti. Particulars: after pre-exposure; control for general deficits. Here is the method:
FIG. 9f illustrates mosquitoes' tendency to rest at the top surface of the cage increased in the presence of a warm, wet stimulus. […] No significant differences due to treatment (n=6 replicates; Mann-Whitney rank-sum test).
Ten 6-day-old female A. aegypti were starved 30 hrs in a 7 cm diameter×˜5 cm high cage with wire mesh on one side and placed inside an aquarium. After 5 min a beaker with 750 ml warm water (40° C.) and filter paper soaked with 400 μl water were placed 5 mm above the cage (FIG. 9e). CpA-off and sham treated mosquitoes were video-recorded and counted at 30 s intervals.

Data set [7] concerns cpA neuron. Kind of data set: Single-sensillum recording: activation of cpA neuron by odorants. The data set is classed as cell-based, Aedes aegypti. The settings on record: for Activation (spikes s^−1): A. aegypti cpA, 0.5-s pulses, odorants 10^−2 in paraffin oil or water, solvent response subtracted. In short, it runs like this:
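Single-sensillum extracellular recordings from cp sensilla of adult female A. aegypti (Rockefeller), 3-12 days post-emergence. Odorants at 10^−2 in paraffin oil or water, 0.5-s pulses; solvent response subtracted, spikes counted; n=2-6, sensilla with <20 spikes s^−1 to negative control only.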

For data set [8], the system named is cpA neuron. Kind of data set: cpA dose response in C. quinquefasciatus. The data set is classed as cell-based, Culex quinquefasciatus. As to the method: FIG. 4d is a graph illustrating the dose responses of the cpA neuron to cyclopentanone in A. aegypti and C. quinquefasciatus, where n=5-6.
Adult female A. aegypti (Linnaeus 1762) (Rockefeller strain) A. gambiae sensu stricto Giles 1902 (G3 strain), or C. quinquefasciatus Say 1823 were tested 3-12 days post-emergence with single-sensillum extracellular recordings. Chemicals were obtained from Sigma-Aldrich at the highest purity (typically >99%) and were dissolved in paraffin oil or water. […] Response to clean beads was subtracted from the results reported. Only sensilla with cpA activity of <20 spikes s^−1 to negative control were considered for analysis.
Taken together, the strong and conserved cpA response, promising safety and fragrance profile, and ability to mimic CO2 activation made cyclopentanone an excellent candidate for behavioural testing.

Data set [9] concerns C. quinquefasciatus. The data set is described as follows: Semi-field two-choice greenhouse trapping. The class given is in vivo, Culex quinquefasciatus. From the text:
FIG. 4g is a schematic of two-choice greenhouse experiments with two counterflow geometry traps, in which mosquitoes were trapped overnight in odorant-baited and solvent (water)-baited traps.
Semi-field trapping: Two modified greenhouses at the Agricultural Experiment Station at the University of California, Riverside, were used as described previously^2, with modifications. Fifty laboratory-reared, mated, non-blood fed female C. quinquefasciatus aged 8-14 days and starved for 24 hrs were released each evening around 5 pm and traps collected at ˜7 am. Counter flow geometry traps baited with CO2 (250 ml min^−1, ˜670 mmol/hr) odorant were used as described^2, with modifications. Odorant solutions in water were dispensed from 20 cm long gauze wicks protruding from uncapped 50 ml tubes beneath the trap outflow. For each trial, one baited trap and one control trap (water-filled) were placed in each of two greenhouses (FIG. 4g). For two-choice CO2 trials, water was placed under both traps. For two-choice ethyl pyruvate trials, both traps expelled CO2, and one trap also released ethyl pyruvate from an open 2.8×7 cm glass vial. Since ethyl pyruvate has very low volatility pure compound was used to generate ˜1.7 mmol/hr. An empty vial was placed under control traps. Treatment position and trap were alternated across trials. Volume of solution lost from tubes containing 5%, 10%, or 20% cyclopentanone were measured after each trial and the average loss of molecules calculated respectively for 3 concentrations as (±s.d.) of 0.7 (±0.1), 1.7 (±0.4), and 3.8 (±0.3) mmol/hr, respectively. Preference index=(# mosquitoes in odor-baited trap−# mosquitoes in control trap)/(total # mosquitoes caught in both traps).
The efficacy of cyclopentanone as a lure was tested using traps in controlled semi-field experiments with C. quinquefasciatus, a mosquito present in Southern California, where the experiments took place. 50 female mosquitoes were released overnight in a modified greenhouse that contained two counter-flow geometry mosquito traps (FIG. 4g). One trap was baited with an evaporative lure of cyclopentanone diluted in water, and the second trap was baited with water alone.

Data set [10] has as its system cpA neuron. Kind of data set: Inhibition screen: odorant overlaid on 0.15% CO2 stimulus, cpA response. The data set is classed as cell-based, Aedes aegypti. Particulars: overlaid on 0.15% CO2. As to the method: Percent inhibition was calculated by comparing mean odorant overlay responses to mean solvent overlay responses, and error bars are s.d.
as §1

For data set [11], the system named is cpA neuron. Kind of data set: Ethyl pyruvate overlaid on foot odor stimulus, cpA response. The settings on record: presented together, 1-s 10^−2 on 2-s foot odor. The class given is cell-based, Aedes aegypti. From the text:
FIG. 4b depicts representative trace and mean response when a 1-s stimulus of ethyl pyruvate (10^−2) is overlaid on a 2-s stimulus of foot odor (mixed beads from Person 1 and Person 2), where n=6.
The cpA inhibitor ethyl pyruvate was selected for testing since it is listed as a GRAS compound, is approved as a flavor agent in food, and has a pleasant smell (fruity, sweet, rum, caramel) (Table 3 above).

Data set [12] concerns A. aegypti. Kind of data set: Hand-in-cage repellency assay. The class given is in vivo, Aedes aegypti. Particulars: mesh treated 500 μl, 10% in acetone. The text has this:
FIG. 4c depicts representative images (left) of hand-in-cage assay mesh window and a graph (right) illustrating the mean number of mosquitoes on the netting at the indicated time points for ethyl pyruvate-treated or solvent-treated netting. n=8 each.
Forty 4-10-day-old female A. aegypti were starved 24 hrs and released in a 30×30 cm cage with a glass top, and trials commenced between 1400 and 1700 hrs. A human hand wearing a nitrile glove (Sol-vex) with a 7×6 cm window covered by two layers of fine polyester mesh (BioQuip, mesh size 26×22 holes per in^2) held in place by magnetic spacers, was inserted into the cage. The lower mesh was 1.5 mm above, and upper mesh was 6 mm above the hand. While skin emanations passed freely through the mesh window, the hand was protected from contact with mosquitoes and treated mesh. The outside mesh was treated with ethyl pyruvate (500 μl, 10% in acetone) or solvent. After letting solvent evaporate the glove was assembled. […] Trials were video recorded and mosquitoes on the mesh were counted every 15 s.
An arm-in-cage repellency assay was used in this Example using gloves with chemical treated mesh-covered windows to quantify attraction of A. aegypti mosquitoes to the human hand without exposing the hand to mosquito bites or skin to contact with test chemicals.

human acetylcholinesterase, sequence (P22303 32-614): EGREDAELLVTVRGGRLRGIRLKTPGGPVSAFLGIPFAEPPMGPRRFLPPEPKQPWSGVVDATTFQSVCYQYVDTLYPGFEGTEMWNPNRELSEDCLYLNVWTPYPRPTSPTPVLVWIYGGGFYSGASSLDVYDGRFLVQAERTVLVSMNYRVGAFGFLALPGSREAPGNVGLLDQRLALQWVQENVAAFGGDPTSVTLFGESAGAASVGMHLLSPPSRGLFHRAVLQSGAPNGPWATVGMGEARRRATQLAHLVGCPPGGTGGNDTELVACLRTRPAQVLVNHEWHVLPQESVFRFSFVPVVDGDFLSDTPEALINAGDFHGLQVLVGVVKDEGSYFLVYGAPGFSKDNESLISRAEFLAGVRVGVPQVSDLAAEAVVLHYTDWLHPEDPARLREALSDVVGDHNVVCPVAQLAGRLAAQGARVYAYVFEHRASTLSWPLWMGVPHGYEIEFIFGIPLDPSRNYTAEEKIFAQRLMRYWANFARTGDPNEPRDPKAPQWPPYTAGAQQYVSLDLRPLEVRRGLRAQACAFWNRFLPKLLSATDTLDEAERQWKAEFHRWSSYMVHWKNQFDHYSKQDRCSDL

Take `CCN(CC)C(=O)c1cccc(C)c1` [DEET, N,N-Diethyl-m-toluamide]: the “inhibition of mammalian cation channels” value in data set [1] is “inhibit”. Moreover, in [2], the “inhibition of human acetylcholinesterase” value is “inhibit”.
For `CCCC(=O)Cl` [butyryl chloride], the “cpA subsequent responses to 1% CO2” value in [3] (3-min exposure to 10^−2 volatiles, tested ~5-20 min after exposure) was “completely abolished”. Moreover, in data set [3] (after 3-min pre-exposure), the “cpA responses to activating skin odorants” value is listed as “substantially reduced” and the “time to recovery of cpA to control levels after treatment” value fell in the range of 12 to 24 h. Also, the “odor-evoked responses of cpB and cpC neurons” value in data set [3] (after treatment, selectivity for cpA) was “not reduced”. Also, in data set [3] (single puff of 1% butyryl chloride), the “cpA firing in response to subsequent CO2 stimuli” value is given as “inhibits cpA from firing”. Besides, the “cpA response to foot odor collected on beads” value in data set [3] (tested ~5-20 min after exposure) is recorded as “completely lost”. Moreover, the “summed responses of antennal neurons to panel of skin odorants (EAG)” value in data set [4] (after treatment) is given as “unaffected”. In addition, the “summed response of antennal neurons to foot odor (EAG)” value in [4] (with or without treatment) is listed as “not statistically different”. For the same compound, in [5] (after pre-exposure (cpA-off)), the “proportion of mosquitoes that initiated upwind flight from release cage” value was “greatly reduced”. In addition, the “proportion of mosquitoes that landed on human odor beads” value in data set [5] (after pre-exposure, 5-min assay) was “substantially reduced”. For the same compound, the “ability or preference for resting at top of cage, warm moist stimulus” value in [6] is “did not impair”.
`O=C1CCCC1` [Cyclopentanone]: the “Activation (spikes s^−1)” value in data set [7] worked out at 120.1 spikes s^−1. Besides, the “cpA activation” value in data set [7] (A. aegypti dose response) and in data set [8] was “strong activator” throughout. Further, the “fold fewer molecules released than CO2 for comparable catch rate” value in [9] (calculated from amount evaporated) is on record as roughly 176 fold. The “trap preference, odorant-baited vs solvent-baited trap” value in data set [9] (evaporative lure in water, overnight) is listed as “preferred cyclopentanone over solvent-baited traps in a dose-dependent manner”. For the same compound, in data set [9] (similar trials in parallel), the “capture numbers relative to CO2-baited traps” value was “comparable”.
On to `CCOC(=O)C(C)=O` [ethyl 2-oxopropanoate], for which the “Activation (spikes s^−1)” value in data set [7] is −63.0 spikes s^−1. The “inhibition of cpA activity” value in [10] is recorded as “strongly inhibited”. Further, the “response of cpA neuron to human foot odor” value in [11] is listed as “completely eliminates”. For the same compound, the “number of times mosquitoes landed on mesh over human hand” value in data set [12] was “substantially reduced”. The “catch of CO2-baited trap also dispensing odorant vs control CO2-baited trap” value in data set [9] (pure compound, ~1.7 mmol/hr) is reported as “significantly fewer mosquitoes”.
